The structures appear in SMILES notation.

Here are results for two compounds from publication PMC5077133, “Towards Development of Small Molecule Lipid II Inhibitors as Novel Antibiotics” (PLoS ONE, 2016).

Series [1] has as its system E. aerogenes ATCC 13048. Briefly: Antibacterial activity (MIC, broth dilution). Particulars: CLSI. The class given is cell-based. As to the method: (§1) Determination of the Minimal Inhibitory Concentrations (MIC) by dilution was carried out by broth dilution according to CLSI standards.
(Broth dilution looks for growth in wells or tubes with falling amounts of substance.)

For series [2], the system named is P. aeruginosa PA01. Briefly: Antibacterial activity (MIC, broth dilution). Particulars: CLSI. The class given is cell-based. As to the method: as §1
Series [3] has as its system protein synthesis in E. faecalis EF1509. In words: Macromolecular synthesis assay: protein synthesis. Particulars: Enterococcus faecalis; E. faecalis EF1509, [3H]Leucine incorporation; read-out: IC50 inhibition of protein synthesis. The class given is cell-based. As for the experimental part:
The effect of compounds on the macromolecular synthetic pathways of E. faecalis EF1509 were measured as follows: Cells were grown at 35°C overnight on Tryptic Soy Agar Broth (Remel, Lenexa, KS), and growth from the plate was used to inoculate 15 ml of Mueller Hinton Broth. The culture was grown to early exponential growth phase (OD600 = 0.2 to 0.3) while incubating in a shaker at 35°C and 150 rpm. For each macromolecular assay, the test agents were added at either 0, 0.25, 0.5, 1, 2, or 4, -fold their respective MIC values for E. faecalis EF1509.
For DNA and protein synthesis, 100 μl of cell culture reaching early exponential phase was added to triplicate wells containing various concentrations of test compound or control antibiotics (2.5 μl) at 40X the final concentration in 100% DMSO (0.1% methanol in water for Rifampicin). A 2.5% DMSO treated culture served as the “no drug” control for all experiments. Cells were added in 1.25X strength MHB to account for the volume of drug added to each reaction, or in M9 minimal medium for protein synthesis reactions. […] After washing five times with 200 μl per well of cold 5% TCA, the filters were allowed to dry, and then counted using a Packard Top Count microplate scintillation counter.

Series [4] is described as follows: Lipid II binding by Surface Plasmon Resonance. The following applies: SPR, immobilized 3-Lipid II, 25°C. In outline: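 Farnesyl (3-isoprene) Lipid II amine-coupled (50 RUs) on CM5 chips. Compounds injected at 10 μM, 30 μl/min, 25°C, in 10 mM HEPES, 150 mM NaCl, 0.05% P20, pH 7.4 (± 3 mM EDTA), 10% DMSO. Signals corrected against control flow-cell; kinetics fitted from binding isotherms.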

Series [5] in a line: Plasma protein binding (Transil). The following applies: human, TRANSIL XL PPB plates (human plasma protein beads). The class given is in vitro ADME. As for the experimental part: Human plasma protein binding was determined using TRANSIL^XL PPB plates (Sovicell, Leipzig, Germany). The compound 6jc48-1 (15 ul, 32% DMSO stock solution) was added to each well of a column (8 wells total) on a room temperature equilibrated plate. The plate was incubated for twelve minutes on a shaker at 1000 rpm then centrifuged for 10 minutes at 750 × g to sediment the beads from the suspension. Aliquots (100 ul) were transferred from the supernatants to 96-well plate for MS analysis. Plasma protein binding data analysis was completed by using the supplied spreadsheet from the manufacturer (Sovicell, User Guide TRANSIL PPB binding kit V2.01, 2013).

Series [6] in a line: Plasma stability (50% serum, LC/MS/MS). The class given is in vitro ADME. As for the experimental part: Samples were taken after 2 min, 5min, 15min, 30min, 1h, 2h and 19h. Stability of compound was quantified by LC/MS/MS. Experiments were carried out by Pharmaron, Inc., (Beijing, China).
A short description of series [7]: Tolerability in mice (maximum tolerated dose, clinical observations). Particulars: C57BL/6J, mouse, in vivo, ip, 100 mg/kg, intraperitoneal, read-out: Dose safely administered intraperitoneally (preliminary maximum tolerated dose studies).
Series [8] is described as follows: Solubility in water (laser nephelometry). The class given is physicochemical. Particulars: n=3. As for the experimental part: Solubility in water was determined using a NEPHELOstar^plus laser nephelometer (BMG Labtech, Cary, NC) at a wavelength of 635 nm and bottom read optics using a 96-well plate format. A solution of 6jc48-1 was prepared at a concentration of 2.5 mg/ml in DMSO. The DMSO solution (10 μl) was added to wells containing water (290 μl) for a final concentration of 125 μg/ml. The plate was incubated at room temperature for two hours prior to reading in the nephalometer. All samples were run in triplicate. Control samples (DMSO with no analyte) were prepared and run in parallel.

The nature of series [9]: Cytotoxicity against mammalian cells (MTS assay). The class given is cell-based. Particulars: human, HeLa cells (ATCC CCL-2.2). In outline: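 HeLa cells exposed 72 h in RPMI1640 to compounds at 64 to 0.125 μg/ml, in triplicate. Viability measured as mitochondrial activity by MTS, and CC50 taken against a standard curve of serially diluted untreated cells.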
(In general: Tetrazolium assays rely on reduction of a dye to a coloured formazan, in cell work by metabolically active cells.)

`CN1/C(=C/C=C/c2cc(-c3ccccc3)cc(-c3ccccc3)[o+]2)C(C)(C)c2ccccc21` [BAS-00127538, (1-Methyl-2,4-diphenyl-6-((1E,3E)-3-(1,3,3-trimethylindolin-2-ylidene)prop-1-en-1-yl)pyryl-1-ium) tetrafluoroborate, reference compound]: the Antibacterial activity (MIC) E. aerogenes ATCC 13048 in series [1] is 16 µg/mL. For the same compound, in series [2], the Antibacterial activity (MIC) P. aeruginosa PA01 came to 64 µg/mL. In series [3], the IC50 came out at 1.6 µg/mL. Further, in [4], the Kd was found to be 1810 ± 300 nM.
Take `CN(C)c1ccc(/C=C/c2cc(-c3ccc(Br)cc3)cc(-c3ccc(Br)cc3)[o+]2)cc1` [6jc48-1]: the Antibacterial activity (MIC) E. aerogenes ATCC 13048 in [1] was ≥ 64 µg/mL. Moreover, the Antibacterial activity (MIC) P. aeruginosa PA01 in [2] was ≥ 64 µg/mL. For the same compound, in series [3], the IC50 came to 50.4 µg/mL. For the same compound, in series [5], the fraction unbound at 12 min was 0.11. Further, the Stability in serum entry in series [6] (after 2 hours) was “fully stable after 2 hours in serum”. Moreover, the “Compound remaining in serum” value in series [6] (after 19h, 10 μg/ml) came out at 46%. Further, the MTD in [7] was ≥ 100 mg/kg. In addition, the solubility at 2 h in series [8] is > 50 µg/mL. The CC50 at 72 h in series [9] was > 100 µg/mL. The compound further came in with a Kd in series [4] of 150 ± 30 nM.

What is called IC50 is the concentration at which inhibition is half-maximal. One may read the Kd as the equilibrium constant for the complex coming apart. Higher therefore signals a looser complex. The term fraction unbound denotes free concentration divided by total concentration. A word on the solubility: it is the dissolved amount per volume that the medium holds. A higher solubility goes with much dissolved substance. The CC50 is the concentration that lowers cell viability or growth by half.
